Results published in PubChem BioAssay (NCI).
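Growth conditions: 96-well plates. Treatment: test compound, 48 hours, 5 concentrations. Analysis: linear interpolation between bracketing concentrations; unreached endpoints set to highest concentration. GI50: concentration for 50% inhibition of growth. At the TGI there is no net growth.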

Experiments:
Experiment in all cases: inhibition of tumour cell growth, NCI panel, 48 h
SK-MEL-2 melanoma = system: SK-MEL-2 melanoma
HT29 colon = system: HT29 colon
IGROV1 ovarian = system: IGROV1 ovarian
K-562 leukemia = system: K-562 leukemia
A549 NSCLC = system: A549 NSCLC
OVCAR-3 ovarian = system: OVCAR-3 ovarian
CCRF-CEM leukemia = system: CCRF-CEM leukemia
RPMI-8226 leukemia = system: RPMI-8226 leukemia
KM12 colon = system: KM12 colon

Compound | TGI (SK-MEL-2 melanoma) [µM] | TGI (HT29 colon) [µM] | TGI (IGROV1 ovarian) [µM] | TGI (K-562 leukemia) [µM] | TGI (A549 NSCLC) [µM] | TGI (OVCAR-3 ovarian) [µM] | TGI (CCRF-CEM leukemia) [µM] | TGI (RPMI-8226 leukemia) [µM] | TGI (KM12 colon) [µM] | GI50 (IGROV1 ovarian) [µM] | GI50 (A549 NSCLC) [µM] | GI50 (CCRF-CEM leukemia) [µM] | GI50 (RPMI-8226 leukemia) [µM] | GI50 (SK-MEL-2 melanoma) [µM] | GI50 (HT29 colon) [µM] | GI50 (KM12 colon) [µM] | GI50 (OVCAR-3 ovarian) [µM]
CN(C)C=Nc1c2c(nc3ccccc13)CCCC2 | > 100 | > 100 | > 100 | > 100 | > 100 | > 100 | > 100 | > 100 |  |  |  |  |  |  |  |  | 
Cc1csc2c(=O)n(COCc3ccccc3)c(=O)[nH]c12 |  | > 100 | > 100 | > 100 | > 100 | > 100 | > 100 | > 100 | > 100 |  |  |  |  |  |  |  | 
Nc1nc(N)c2nc(CNc3ccc(C(=O)NC(CCNC(=O)c4ccccc4C(=O)O)C(=O)O)cc3)cnc2n1 (stereo not given) | > 100 | > 100 | > 100 | > 100 | > 100 | > 100 | > 100 | > 100 | > 100 | 0.0358 | 0.0688 | 0.0065 | 0.0343 |  |  |  | 
Clc1ccc(Nc2nnc(CNc3ccc(-c4nnc(Nc5ccc(Cl)cc5)o4)cc3)o2)cc1 | 45.8 | 33.1 | 30.4 | > 100 | 30.2 | 23.9 | > 100 | > 100 | 23.3 |  |  |  |  |  |  |  | 
COC(=O)C1Cc2c([nH]c3ccccc23)-c2[nH]c3ccccc3c2CC(NC(C)=O)C(=O)N2CCCC2C(=O)N1 (stereo not given) | > 100 | > 100 | > 100 | > 100 | > 100 | > 100 | > 100 | > 100 |  |  |  |  |  |  |  |  | 
CP(=O)(O)C(N)c1ccccc1 (stereo not given) |  | > 100 | > 100 | > 100 | > 100 | > 100 | > 100 | > 100 | > 100 |  |  |  |  |  |  |  | 
CCOC(=O)c1cc([N+](=O)[O-])cc([N+](=O)[O-])c1Sc1ncnc2nc[nH]c12 | 9.43 | 15.3 | 6.13 | > 100 | 32.5 | 2.45 | 6.84 | > 21.8 | 18.1 |  |  |  |  |  |  |  | 
COC1=CC(c2ccc[nH]2)=N/C1=C\c1[nH]c(C)c(C)c1CCC(=O)OCc1ccccc1 | 2.1 | 1.36 |  |  | 11.1 | 1.35 | 2.59 |  | 1.8 |  | 0.602 | 0.142 |  | 0.572 | 0.191 | 0.242 | 0.304
CN1C(=O)[C@@H]2[C@@H]3c4ccccc4N[C@@H]3c3[nH]c4ccccc4c3[C@@H]2C1=O | 33.1 | > 100 | 26.9 | 74.7 | 65.1 | 40 | 46.5 | 47 |  |  |  |  |  |  |  |  | 
Cc1ccc(Cc2n[nH]c(=O)n2N2C(=O)c3ccccc3C2=O)cc1 | > 100 | > 100 | > 100 | > 100 | > 100 | > 100 | > 100 |  | > 100 |  |  |  |  |  |  |  | 
O=C1C(Cl)C(c2ccc([N+](=O)[O-])cc2)N1n1cnc2ccccc2c1=O (stereo not given) | > 100 | > 100 | > 100 | > 100 | > 100 | > 100 | > 100 |  | > 100 |  |  |  |  |  |  |  | 
CON(C(=O)OC(C)(C)C)c1ccccc1 | > 100 | > 100 | > 100 | > 100 | > 100 | > 100 | > 100 | > 100 | > 100 |  |  |  |  |  |  |  | 
COc1ccccc1[C@@H]1CCC2CC[C@@H](c3ccccc3OC)[N+]21Cc1ccccc1 (stereo not given in full) | 8.86 | 10.1 | 5.7 | 12.7 | 13.1 | 10.7 | 20.3 | 1.47 | 7.03 |  |  |  |  |  |  |  | 
CN(C)C1(c2cc3ccccc3s2)CCCCC1 | 47.7 | > 100 | > 100 | 65.8 | > 100 | > 100 | 0.0223 |  | > 100 |  |  |  |  |  |  |  | 
N#CCN1CCCN(CC#N)CCN(CC#N)CCCN(CC#N)CC1 | > 100 |  | > 100 | > 100 | > 100 | > 100 | > 100 | > 100 | > 100 |  |  |  |  |  |  |  | 
N#CC(C#N)C1CN2CCC1CC2 (stereo not given) | > 100 | > 100 | > 100 | > 100 | > 100 | > 100 | > 100 | > 100 | > 100 |  |  |  |  |  |  |  | 
O=C1C=CC(=O)[C@H]2C3C=CC(C4C3C3(Cl)C(Cl)=C(Cl)[C@]4(Cl)C3(Cl)Cl)[C@@H]12 (stereo not given in full) | 20.3 | 12.2 | 18.4 | 20.4 | 16 | 8.98 | 16.2 | 23 | 17 |  |  |  |  |  |  |  | 
Cc1cc(N)c2cc(NC(=O)Nc3ccc4nc(C)cc(N)c4c3)ccc2n1 | > 100 | > 100 | > 100 | > 100 | > 100 | > 100 | > 100 | > 100 | > 100 |  |  |  |  |  |  |  | 
CCN(CCN(CC)C(=O)NC)C(=O)NC | > 100 | > 100 | > 100 | > 100 | > 100 |  | > 100 | > 100 |  |  |  |  |  |  |  |  | 
CCOP(=O)(OCC)C(C)(CC)/N=C(\N)NC#N (stereo not given) | > 100 | > 100 | > 100 | > 100 | > 100 | > 100 | > 100 | > 100 | > 100 |  |  |  |  |  |  |  | 
COc1cc(CC(=O)c2cc3c(cc2-c2ccccc2)OCO3)cc(OC)c1OC | > 100 | > 100 | > 100 | > 100 | > 100 | > 100 | > 100 |  | > 100 |  |  |  |  |  |  |  | 
O=C(NCCC1CN(S(=O)(=O)C(F)(F)F)c2ccccc21)OCc1ccccc1 (stereo not given) | > 100 | > 100 | > 100 | > 100 | > 100 | > 100 | > 100 | > 100 | > 100 |  |  |  |  |  |  |  | 
CC1(C)OC2OC(C(=O)c3ccccc3)C3OC(C)(C)OC3C2O1 (stereo not given) | > 100 |  | > 100 | > 100 |  | > 100 | > 100 | > 100 | > 100 |  |  |  |  |  |  |  | 
